US20240158446A1, “CYCLIC COMPOUND HAVING SELECTIVE INHIBITORY ACTION ON KRAS OVER HRAS AND NRAS” (CHUGAI SEIYAKU KABUSHIKI KAISHA, priority 2021, published 2024)
Read-outs that look alike come from different tables or passages of the source.

Columns and labels:
[1] = molecular target: GDP-bound KRAS wild-type protein (Homo sapiens, UniProt P01116); experiment: Binding to KRAS by surface plasmon resonance (SPR), Single Cycle Kinetics
[2] = molecular target: GDP-bound NRAS wild-type protein (Homo sapiens, UniProt P01111); experiment: Binding to NRAS by surface plasmon resonance (SPR), Single Cycle Kinetics; details: for NRAS/KRAS (ratio of KD value for NRAS to KD value for KRAS): GDP-bound NRAS wild-type protein vs GDP-bound KRAS wild-type protein
[3] = test system: human lung cancer strain NCI-H441;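 note: cell proliferation inhibition after four days measured by CellTiter-Glo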
[4] = molecular target: GDP-bound HRAS wild-type protein (Homo sapiens, UniProt P01112); experiment: Binding to HRAS by surface plasmon resonance (SPR), Single Cycle Kinetics; details: for HRAS/KRAS (ratio of KD value for HRAS to KD value for KRAS): GDP-bound HRAS wild-type protein vs GDP-bound KRAS wild-type protein
[5] = SPR, Single Cycle Kinetics, GDP-bound KRAS wild-type protein, read-out: KRAS KD
[6] = SPR, Single Cycle Kinetics, 1:1 binding model, GDP-bound KRAS wild-type protein, read-out: KRAS KD

GDP-bound HRAS wild-type protein, sequence (P01112 whole entry): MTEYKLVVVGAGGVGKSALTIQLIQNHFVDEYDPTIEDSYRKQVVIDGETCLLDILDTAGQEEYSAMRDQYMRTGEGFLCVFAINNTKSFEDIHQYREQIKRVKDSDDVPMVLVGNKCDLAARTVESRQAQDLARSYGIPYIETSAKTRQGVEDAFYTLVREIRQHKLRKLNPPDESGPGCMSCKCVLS
GDP-bound KRAS wild-type protein, sequence (P01116 whole entry): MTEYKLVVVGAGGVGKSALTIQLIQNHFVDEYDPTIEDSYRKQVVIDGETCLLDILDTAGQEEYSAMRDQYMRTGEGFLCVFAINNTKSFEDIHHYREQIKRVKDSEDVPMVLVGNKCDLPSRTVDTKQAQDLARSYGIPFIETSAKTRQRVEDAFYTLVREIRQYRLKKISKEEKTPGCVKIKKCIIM
GDP-bound NRAS wild-type protein, sequence (P01111 whole entry): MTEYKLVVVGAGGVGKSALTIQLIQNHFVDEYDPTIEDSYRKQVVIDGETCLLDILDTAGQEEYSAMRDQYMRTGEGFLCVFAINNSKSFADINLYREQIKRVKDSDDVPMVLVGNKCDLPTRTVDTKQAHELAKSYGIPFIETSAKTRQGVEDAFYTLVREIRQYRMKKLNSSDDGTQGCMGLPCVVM

Structure (SMILES)	Kd [1, 5] [nM]	IC50 [3] [nM]	Kd [1, 6] [nM]	NRAS/KRAS (ratio of KD value for NRAS to KD value for KRAS) ([2]; SPR)	HRAS/KRAS (ratio of KD value for HRAS to KD value for KRAS) ([4]; SPR)	NRAS/KRAS (ratio of KD value for NRAS to KD value for KRAS) ([2]; SPR, KD ratio class)	HRAS/KRAS (ratio of KD value for HRAS to KD value for KRAS) ([4]; SPR, KD ratio class)	further results
CCO[C@@H]1C[C@H]2C(=O)NC3(CCC3)C(=O)N(C)[C@@H](C(CC)CC)C(=O)N(C)[C@H](C(=O)N(C)C)CC(=O)N(C)[C@@H](C)C(=O)N[C@@H]([C@@H](C)CC)C(=O)N(C)CC(=O)N(C)[C@H]3C/C=C\CCN(C3=O)[C@@H](Cc3ccc(C(F)(F)F)cc3)C(=O)N(C)CC(=O)N[C@@H](CCc3ccc4sccc4c3)C(=O)N2C1 [PP1222]	–	301	1.2	–	–	A (a compound having 10 or more and less than 20 is denoted as A)	A (a compound having 10 or more and less than 20 is denoted as A)	–
CCO[C@@H]1C[C@H]2C(=O)NC3(CCC3)C(=O)N(C)[C@@H](C3CCCC3)C(=O)N(C)[C@H](C(=O)N(C)C)CC(=O)N(C)[C@@H](Cc3ccccc3F)C(=O)N[C@@H]([C@@H](C)CC)C(=O)N(C)CC(=O)N(C)[C@H]3CCCCCN(C3=O)[C@@H](Cc3ccc(C(F)(F)F)cc3)C(=O)N(C)CC(=O)N[C@@H](CCc3cc(F)c(C(F)(F)F)c(F)c3)C(=O)N2C1 [PP0934]	0.72	51.8	–	B (a compound having 3 or more and less than 10 is denoted as B)	B (a compound having 3 or more and less than 10 is denoted as B)	–	–	–
CCCOC[C@H]1C(=O)N[C@@H]([C@@H](C)CC)C(=O)N(C)CC(=O)N(C)[C@H]2C/C=C\CCN(C2=O)[C@@H](CC2CCC(F)(F)CC2)C(=O)N(C)CC(=O)N[C@@H](CCc2ccc(C(F)(F)F)c(OC)c2)C(=O)N2C[C@@H](C)C[C@H]2C(=O)NC2(CC(C)(C)C2)C(=O)N(C)[C@@H](C(CC)CC)C(=O)N(C)[C@H](C(=O)N(C)C)CC(=O)N1C [PP2483]	1.6	195	–	A (a compound having 10 or more and less than 20 is denoted as A)	A (a compound having 10 or more and less than 20 is denoted as A)	–	–	–
CCOC[C@H]1C(=O)N[C@@H]([C@@H](C)CC)C(=O)N(C)CC(=O)N(C)[C@H]2C/C=C\CCN(C2=O)[C@@H](CC2CCC(F)(F)CC2)C(=O)N(C)CC(=O)N[C@@H](CCc2ccc(C(F)(F)F)c(OC)c2)C(=O)N2C[C@@H](C)C[C@H]2C(=O)NC2(CC(C)(C)C2)C(=O)N(C)[C@@H](C(CC)CC)C(=O)N(C)[C@H](C(=O)N(C)C)CC(=O)N1C [PP2458]	1.3	80.7	–	A (a compound having 10 or more and less than 20 is denoted as A)	A (a compound having 10 or more and less than 20 is denoted as A)	–	–	–
CCC[C@H]1C(=O)N[C@@H]([C@@H](C)CC)C(=O)N2CCC[C@H]2C(=O)N(C)[C@H]2C/C=C\CCN(C2=O)[C@@H](Cc2ccc(C)cc2)C(=O)N(C)CC(=O)N[C@@H](CCc2ccc(C(F)(F)F)c(OC)c2)C(=O)N2C[C@H](OCC)C[C@H]2C(=O)N(C)C2(CCC2)C(=O)N(C)[C@@H](C2CCCC2)C(=O)N(C)[C@H](C(=O)N2CCCCC2)CC(=O)N1C [PP3100, (1S,4S,10S,13S,17S,20S,26S,28R,32S,38S,42Z)-20-cyclopentyl-28-ethoxy-32-[2-[3-methoxy-4-(trifluoromethyl)phenyl]ethyl]-2,14,18,21,24,36-hexamethyl-10-[(1S)-1-methylpropyl]-17-(piperidine-1-carbonyl)-13-propyl-38-(p-tolylmethyl)spiro[2,8,11,14,18,21,24,30,33,36,39-undecazatetracyclo[37.5.1.0^4,8.0^26,30]pentatetracont-42-ene-23,1′-cyclobutane]-3,9,12,15,19,22,25,31,34,37,45-undecone]	0.29	–	–	A (a compound having 10 or more and less than 20 is denoted as A)	B (a compound having 3 or more and less than 10 is denoted as B)	–	–	Kd ([1]; SPR, Single Cycle Kinetics, 1:1 binding model, read-out: KD value with respect to GDP-bound KRAS wild-type protein): 0.29 nM; ratio of the KD value with respect to GDP-bound NRAS wild-type protein to the KD value with respect to KRAS ([2]; SPR, KD(NRAS)/KD(KRAS)): A (a compound having 10 or more and less than 20 is denoted as A); IC50 ([3]; read-out: NCI-H441 cell proliferation inhibitory activity, 50% proliferation inhibitory concentration (IC50 value), NCI-H441, four days, CellTiter-Glo): 15 nM; ratio of the KD value with respect to GDP-bound HRAS wild-type protein to the KD value with respect to KRAS ([4]; SPR, KD(HRAS)/KD(KRAS)): B (a compound having 3 or more and less than 10 is denoted as B)

Further compounds by falling IC50 [3], results first:

Kd [1, 5] [nM]	IC50 [3] [nM]	Kd [1, 6] [nM]	Structure (SMILES)	NRAS/KRAS (ratio of KD value for NRAS to KD value for KRAS) ([2]; SPR)	HRAS/KRAS (ratio of KD value for HRAS to KD value for KRAS) ([4]; SPR)	NRAS/KRAS (ratio of KD value for NRAS to KD value for KRAS) ([2]; SPR, KD ratio class)	HRAS/KRAS (ratio of KD value for HRAS to KD value for KRAS) ([4]; SPR, KD ratio class)	further results
0.9	41.6	–	CC[C@H](C)[C@@H]1NC(=O)[C@H](CC(C)C)N(C)C(=O)C[C@@H](C(=O)N2CCOCC2)N(C)C(=O)[C@H](C2CCCC2)N(C)C(=O)C2(CCC2)NC(=O)[C@@H]2[C@@H](OCC(F)F)CCN2C(=O)[C@H](CCc2cc(F)c(C(F)(F)F)c(F)c2)NC(=O)CN(C)C(=O)[C@H](Cc2ccc(C(F)(F)F)cc2)N2CCCCC[C@@H](C2=O)N(C)C(=O)CN(C)C1=O [PP1012]	A (a compound having 10 or more and less than 20 is denoted as A)	B (a compound having 3 or more and less than 10 is denoted as B)	–	–	–
–	40.6	0.4	CCO[C@@H]1C[C@H]2C(=O)NC3(CCC3)C(=O)N(C)[C@@H](C(CC)CC)C(=O)N(C)[C@H](C(=O)N(C)C)CC(=O)N(C)[C@@H](COC)C(=O)N[C@@H]([C@@H](C)CC)C(=O)N(C)CC(=O)N(C)[C@H]3C/C=C\CCN(C3=O)[C@@H](Cc3ccc(C(F)(F)F)cc3)C(=O)N(C)CC(=O)N[C@@H](CCc3ccc(Cl)c(Cl)c3)C(=O)N2C1 [PP1221]	–	–	AA (a compound having 20 or more is denoted as AA)	A (a compound having 10 or more and less than 20 is denoted as A)	–
0.48	31.9	–	CC[C@H](C)[C@@H]1NC(=O)[C@H](CC(C)C)N(C)C(=O)C[C@@H](C(=O)N(C)C)N(C)C(=O)[C@H](C2CCCC2)N(C)C(=O)C2(CC(C)(C)C2)NC(=O)[C@@H]2C[C@H](C)CN2C(=O)[C@H](CCc2ccc(C(F)(F)F)c(OC)c2)NC(=O)CN(C)C(=O)[C@H](Cc2ccc(C)cc2)N2CC/C=C\C[C@@H](C2=O)N(C)C(=O)[C@@H]2CCCN2C1=O [PP2409]	A (a compound having 10 or more and less than 20 is denoted as A)	B (a compound having 3 or more and less than 10 is denoted as B)	–	–	–
–	29.8	0.17	CC[C@H](C)[C@@H]1NC(=O)[C@H](CC)N(C)C(=O)C[C@@H](C(=O)N2CCOCC2)N(C)C(=O)[C@H](C2CCCC2)N(C)C(=O)C2(CCCC2)NC(=O)[C@@H]2CCCN2C(=O)[C@H](CCc2ccc(C(F)(F)F)c(Cl)c2)NC(=O)CN(C)C(=O)[C@H](Cc2ccc(C(F)(F)F)cc2)N2C[C@H](C)CC[C@@H](C2=O)N(C)C(=O)CN(C)C1=O [PP1337]	–	–	B (a compound having 3 or more and less than 10 is denoted as B)	B (a compound having 3 or more and less than 10 is denoted as B)	–
–	24.2	–	CCOC[C@H]1C(=O)N[C@@H]([C@@H](C)CC)C(=O)N(C)CC(=O)N(C)[C@H]2C/C=C\CCN(C2=O)[C@@H](Cc2ccc(C(F)(F)F)cc2)C(=O)N(C)CC(=O)N[C@@H](CCc2ccc(Cl)c(Cl)c2)C(=O)N2C[C@H](OCC)C[C@H]2C(=O)NC2(CC(C)(C)C2)C(=O)N(C)[C@@H](CC(C)(C)C)C(=O)N(C)[C@H](C(=O)N(C)C)CC(=O)N1C [PP2740]	–	–	–	–	Kd ([1]; SPR Single Cycle Kinetics, GDP-bound KRAS wild-type protein, 1:1 binding model, read-out: KRAS KD): 0.17 nM; NRAS/KRAS (ratio of KD value with respect to GDP-bound NRAS wild-type protein to KD value with respect to KRAS) ([2]; SPR KD ratio NRAS/KRAS, class symbols): AA (a compound having 20 or more is denoted as AA); HRAS/KRAS (ratio of KD value with respect to GDP-bound HRAS wild-type protein to KD value with respect to KRAS) ([4]; SPR KD ratio HRAS/KRAS, class symbols): A (a compound having 10 or more and less than 20 is denoted as A)
0.29	21.3	–	CCOC[C@H]1C(=O)N[C@@H]([C@@H](C)CC)C(=O)N(C)CC(=O)N(C)[C@H]2C/C=C\CCN(C2=O)[C@@H](Cc2ccc(C)cc2)C(=O)N(C)CC(=O)N[C@@H](CCc2ccc(C(F)(F)F)c(OC)c2)C(=O)N2C[C@H](OCC)C[C@H]2C(=O)NC2(CC(C)(C)C2)C(=O)N(C)[C@@H](C2CCCC2)C(=O)N(C)[C@H](C(=O)N(CC)CC)CC(=O)N1C [PP2406]	A (a compound having 10 or more and less than 20 is denoted as A)	A (a compound having 10 or more and less than 20 is denoted as A)	–	–	–
0.21	21.2	–	CC[C@H](C)[C@@H]1NC(=O)[C@@H]2CCC/C=C/c3ccc(cc3)C[C@@H](C(=O)N(C)CC(=O)N[C@@H](CCc3ccc(Cl)c(Cl)c3)C(=O)N3C[C@H](OC4CCC4)C[C@H]3C(=O)NC3(CC(C)(C)C3)C(=O)N(C)[C@@H](C3CCCC3)C(=O)N(C)[C@H](C(=O)N(C)CC)CC(=O)N2C)N2CC/C=C\C[C@@H](C2=O)N(C)C(=O)CN(C)C1=O [PP3058]	A (a compound having 10 or more and less than 20 is denoted as A)	A (a compound having 10 or more and less than 20 is denoted as A)	–	–	–
–	15.8	0.068	CC[C@H](C)[C@@H]1NC(=O)[C@H](CC)N(C)C(=O)C[C@@H](C(=O)N(C)C)N(C)C(=O)[C@H](C2CCCC2)N(C)C(=O)C2(CCCC2)NC(=O)[C@@H]2CCCN2C(=O)[C@H](CCc2cc(F)c(C(F)(F)F)c(F)c2)NC(=O)CN(C)C(=O)[C@H](Cc2ccc(C(F)(F)F)cc2)N2C[C@H](C)CC[C@@H](C2=O)N(C)C(=O)CN(C)C1=O [PP1382]	–	–	B (a compound having 3 or more and less than 10 is denoted as B)	B (a compound having 3 or more and less than 10 is denoted as B)	–
